Results reported in ChEMBL document CHEMBL5137131, “Mechanisms of Biochanin A Alleviating PM2.5 Organic Extracts-Induced EMT of A549 Cells through the PI3K/Akt Pathway” (J Nat Prod, 2022).
Active and inactive are the calls of the source. No cut-off for these calls is given here.

Columns and labels:
[1] = system: A549; assay: Inhibition of PM2.5 induced PI3K upregulation in human A549 cells at 10 uM by Western blot analysis relative to control; format: functional
[2] = system: A549; assay: Downregulation of PM2.5 induced Snail expression in human A549 cells; format: functional, cell-based
[3] = target: Serine/threonine-protein kinase AKT (Homo sapiens) (UniProt P31751+Q9Y243+P31749); assay: Inhibition of PM2.5 induced Akt phosphorylation upregulation in human A549 cells at 10 uM by Western blot analysis relative to control; format: cell-based
[4] = system: A549; assay: Inhibition of PM2.5 induced PI3K expression in human A549 cells at 10 uM by qRT-PCR analysis; format: functional, cell-based
[5] = system: A549; assay: Downregulation of PM2.5 induced Slug expression in human A549 cells; format: functional, cell-based
[6] = system: A549; assay: Downregulation of PM2.5 induced vimentin expression in human A549 cells at 10 uM by Western blot analysis; format: functional, cell-based
[7] = system: A549; assay: Inhibition of PM2.5 induced E-cadherin downregulation in human A549 cells at 10 uM by Western blot analysis; format: functional, cell-based
[8] = system: A549; assay: Inhibition of PM2.5 induced Akt phosphorylation in human A549 cells at 10 uM […]; format: functional, cell-based

Chain of Serine/threonine-protein kinase AKT (Homo sapiens) (P31749 whole entry, looked up): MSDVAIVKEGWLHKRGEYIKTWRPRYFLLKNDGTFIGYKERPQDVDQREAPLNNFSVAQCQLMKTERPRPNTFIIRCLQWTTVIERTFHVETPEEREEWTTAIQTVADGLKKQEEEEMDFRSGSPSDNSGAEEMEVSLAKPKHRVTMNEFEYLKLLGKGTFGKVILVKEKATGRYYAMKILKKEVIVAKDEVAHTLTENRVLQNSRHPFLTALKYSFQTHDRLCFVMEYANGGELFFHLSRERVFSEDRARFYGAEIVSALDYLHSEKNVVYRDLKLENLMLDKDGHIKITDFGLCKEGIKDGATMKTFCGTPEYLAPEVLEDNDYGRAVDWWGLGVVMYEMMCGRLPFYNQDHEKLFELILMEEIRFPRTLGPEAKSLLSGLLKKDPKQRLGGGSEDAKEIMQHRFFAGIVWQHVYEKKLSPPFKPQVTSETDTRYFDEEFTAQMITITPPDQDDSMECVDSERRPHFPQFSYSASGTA
Chain of Serine/threonine-protein kinase AKT (Homo sapiens) (P31751 whole entry, looked up): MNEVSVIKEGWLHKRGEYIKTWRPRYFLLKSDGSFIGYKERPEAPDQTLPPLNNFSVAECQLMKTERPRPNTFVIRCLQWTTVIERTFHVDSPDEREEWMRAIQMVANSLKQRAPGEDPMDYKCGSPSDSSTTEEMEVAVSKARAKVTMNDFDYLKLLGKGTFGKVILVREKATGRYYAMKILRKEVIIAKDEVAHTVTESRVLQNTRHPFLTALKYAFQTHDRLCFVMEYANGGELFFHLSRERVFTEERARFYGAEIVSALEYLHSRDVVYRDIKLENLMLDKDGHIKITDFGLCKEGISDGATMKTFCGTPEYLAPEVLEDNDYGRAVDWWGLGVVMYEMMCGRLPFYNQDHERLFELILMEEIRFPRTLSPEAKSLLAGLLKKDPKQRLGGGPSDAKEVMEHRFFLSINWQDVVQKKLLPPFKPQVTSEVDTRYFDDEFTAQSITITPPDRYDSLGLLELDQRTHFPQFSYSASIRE
Chain of Serine/threonine-protein kinase AKT (Homo sapiens) (Q9Y243 whole entry, looked up): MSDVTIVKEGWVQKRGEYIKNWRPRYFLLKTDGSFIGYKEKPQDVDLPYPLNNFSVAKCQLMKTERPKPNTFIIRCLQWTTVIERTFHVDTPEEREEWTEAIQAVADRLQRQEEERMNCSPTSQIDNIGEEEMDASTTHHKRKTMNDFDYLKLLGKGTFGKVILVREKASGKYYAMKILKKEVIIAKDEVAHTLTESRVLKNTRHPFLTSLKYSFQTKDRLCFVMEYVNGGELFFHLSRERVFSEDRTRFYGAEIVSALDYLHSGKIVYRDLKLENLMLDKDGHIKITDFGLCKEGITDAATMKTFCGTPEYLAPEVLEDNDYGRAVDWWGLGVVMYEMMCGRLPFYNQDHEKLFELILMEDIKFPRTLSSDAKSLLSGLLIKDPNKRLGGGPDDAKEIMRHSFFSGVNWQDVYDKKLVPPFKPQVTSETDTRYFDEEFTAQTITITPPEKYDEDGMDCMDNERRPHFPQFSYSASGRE

O=c1cc(N2CCOCC2)oc2c(-c3ccccc3)cccc12 [LY-294002]
inhibition at 10 µM [1]: 84.3%
Activity [2]: Active
inhibition [3]: 15%
inhibition [4]: Active
Activity [5]: Active
Activity [6]: Active
inhibition [7]: Active
inhibition [8]: Active
